Data taken from patent US20260069606A1, “Oxidative Stress and Diabetes Treatment with Cobinamide” (The Regents of the University of California, priority 2022, published 2026).

Columns and labels:
[1] = mouse, in vivo
Method: Male C57BL/6NHsd mice (20 weeks old) were housed three to four animals per cage in a temperature-controlled environment with a 12-h light/dark cycle and fed standard rodent chow with ad libitum access to food and water. After one week of acclimatization, mice weighing 30±3 g were injected intraperitoneally for five consecutive days with either saline (n=20) or 50 mg/kg streptozotocin (n=20) 69. […] The 16 diabetic mice and a corresponding number of the saline-injected, non-diabetic mice were split randomly in half to receive either plain drinking water or histidyl-cobinamide in the drinking water. The four groups of animals are referred to as: diabetic vehicle (D-Veh); diabetic, cobinamide-treated (D-Cbi); non-diabetic, vehicle (ND-Veh); and non-diabetic, cobinamide-treated (ND-Cbi). The histidyl-cobinamide concentration was 1 mM for the ND-Cbi mice, but because the diabetic mice drank more than the non-diabetic mice, the cobinamide concentration for the D-Cbi mice was decreased accordingly. The water was replenished twice a week.
After three months of treatment, the mice were weighed, fasted for 6 h, and then underwent an intraperitoneal glucose tolerance test (IPGTT) using 2 g/kg of a 20% glucose solution. Blood glucose concentrations were measured just before the glucose injection (time 0, fasting specimen) and at 15, 30, 60, and 120 min following the injection. […] Two days later, the mice were euthanized by inducing deep anesthesia with 200 mg/kg ketamine and 40 mg/kg xylazine administered by intraperitoneal injection, followed by exsanguination via an open cardiac puncture.
Type I diabetic mice were generated using streptozotocin, and then provided cobinamide in the drinking water for three months.

[2] = Reaction with hydrogen peroxide, H2O2-specific electrode; type: biochemical
Method: FIGS. 2A-2F. Cobinamide Functions as a Catalase Mimetic and Reacts with Peroxynitrite. […]. Hydrogen peroxide (final concentration 50 μM) was added to solutions containing increasing concentrations of Chi(III) (FIG. 2A) or Chi(II) (FIG. 2C), and the H2O2 concentration was measured over time using a H2O2-specific electrode. The log of the velocity in the presence of Chi(III) (FIG. 2B) or Chi(II) (v) (FIG. 2D) over the velocity in their absence (Vo) is plotted against the log of their concentrations at 20 min over their concentrations at zero time. These plots yield a reaction order with respect to Chi(III) and Cbi(II) of 0.7. The experiments were repeated three times with similar results. Dotted lines show 95% confidence intervals. FIG. 2E. […] The Chi(III) spectra are slightly different from those shown in FIG. 1G because at pH 11, dihydroxo-cobinamide is generated, whereas at pH 7.1, aquohydroxo-cobinamide is the predominant species. The spectra of aquohydroxo- and dihydroxo-cobinamide are known to be different^65. FIG. 2F. Varying concentrations of Chi(II) from 1 to 10 μM were mixed with 10 μM peroxynitrite in a stopped-flow instrument, and absorption at 315 nm was monitored for 0.5 sec. The results for 5 μM Cbi(II) are shown; red circles are the observed data, and the black line is a two-phase non-linear regression curve generated by Prism 7.04 software. […] The experiment was repeated three times with similar results. Dotted lines show 95% confidence intervals.
Table I. Reaction Rates of Cobinamide (Cbi), Cobalamin, Imisopasem, and MnTBAP with Reactive Oxygen and Nitrogen Species. Reactions of the indicated compounds with O2·^−, ONOO^−, and ·NO are all second order reactions with rate constants in units of M^−1 s^−1. The reactions of Cbi(III) and Cbi(II) with H2O2 are third order with rate constant units of M^−2 s^−1. Chi(II) and cobalamin(II) bind nitric oxide, so a Ka is shown in units of M^−1. For the new data presented in this study, rate constants were measured for O2·^− using a hypoxanthine-xanthine oxidase-cytochrome c system, for H2O2 using a H2O2-specific sensor (World Precision Instruments), and for ONOO^− using a stopped-flow instrument. Published rate constants for Cu/Zn and Mn superoxide dismutases (SOD) and catalase are shown for reference.^a,b Letters and numbers in parenthesis refer to footnotes and references, respectively.
Both Cbi(III) and Chi(II) react with H2O2, and the reaction was essentially first order with respect to Cbi(III) and Cbi(II) (FIG. 2A-D), and second order with respect to H2O2 for both cobinamide species. […]

[3] = second order; literature values; cited from earlier work
[4] = Tolerability in non-diabetic and streptozotocin-diabetic mice (weight, liver and renal function); type: in vivo
Description: The water was replenished twice a week.
Over the three-month treatment period, the non-diabetic mice gained an average of 4.1±0.8 g. while the diabetic mice lost an average of 0.3 g, with wide variation in weight change among the latter mice.

C/C1=C2/[N-][C@H]([C@H](CC(N)=O)[C@@]2(C)CCC(=O)NC[C@@H](C)O)[C@]2(C)N=C(/C(C)=C3N=C(/C=C4N=C1[C@@H](CCC(N)=O)C\4(C)C)[C@@H](CCC(N)=O)[C@]\3(C)CC(N)=O)[C@@H](CCC(N)=O)[C@]2(C)CC(N)=O.[Co+3] [cobinamide, aquohydroxo-cobinamide]
Plasma cobinamide concentration, diabetic mice [1]: 0.55 ± 0.36 µM
Plasma cobinamide concentration, non-diabetic mice [1]: 0.11 ± 0.07 µM
Reaction order with respect to the cobinamide species in the reaction with H2O2 ([2]; 50 μM H2O2): 0.7
Apparent rate constant, reaction with hydrogen peroxide (H2O2) ([2]; third order, H2O2-specific sensor, new data of this study, listed as Cbi(III)): 8.0 × 10^2 M^−2 s^−1
Rate constant, reaction with nitric oxide (·NO), published [3]: 2.4 × 10^8 (51) M^−1 s^−1
Average weight gain of cobinamide-treated diabetic mice ([4]; mouse, in vivo): 0.63 g
Effect on weight ([4]; mouse, in vivo): did not significantly affect weight
Liver function and renal function tests ([4]; mouse, in vivo): no effect
Tolerability ([4]; non-diabetic and diabetic mice, three months in drinking water): well tolerated
